In this test the test system is P388 leukemia ip, CD2F1 mice, survival T/C. As to the kind of experiment: NCI In Vivo Anticancer Drug Screen. Data for tumor model P388 Leukemia (intraperitoneal) in CD2F1 (CDF1) mice. Particulars: endpoint: median survival time, higher = longer survival. In short, it runs like this: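 Mice carrying the transplanted tumor received test compound or vehicle. Survival was recorded in each group, and the value is the treated-group measurement divided by that of the vehicle-treated control group.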

Where [1] appears, read: dose: 25.0 mg/kg/injection, schedule: Q04DX003 (ip), vehicle: saline with Tween-80.
[2] abbreviates: dose: 50.0 mg/kg/injection, schedule: Q04DX003 (ip), vehicle: saline with Tween-80.
Setting [3] is: dose: 100.0 mg/kg/injection, schedule: Q04DX003 (ip), vehicle: saline with Tween-80.
The mark [4] stands for this setting: dose: 50.0 mg/kg/injection, schedule: Q01DX005 (ip), vehicle: saline with Tween-80.
Where [5] appears, read: dose: 100.0 mg/kg/injection, schedule: Q01DX005 (ip), vehicle: saline with Tween-80.
Where [6] appears, read: dose: 200.0 mg/kg/injection, schedule: Q01DX005 (ip), vehicle: saline with Tween-80.
Setting [7] is: dose: 60.0 mg/kg/injection, schedule: Q01DX005 (ip), vehicle: saline with Tween-80.
Where [8] appears, read: dose: 120.0 mg/kg/injection, schedule: Q01DX005 (ip), vehicle: saline with Tween-80.
Where [9] appears, read: dose: 240.0 mg/kg/injection, schedule: Q01DX005 (ip), vehicle: saline with Tween-80.
Setting [10] is: dose: 50.0 mg/kg/injection, schedule: Q01DX009 (ip), vehicle: saline with Tween-80.
Setting [11] is: dose: 100.0 mg/kg/injection, schedule: Q01DX009 (ip), vehicle: saline with Tween-80.
Where [12] appears, read: dose: 200.0 mg/kg/injection, schedule: Q01DX009 (ip), vehicle: saline with Tween-80.
Setting [13] is: dose: 50.0 mg/kg/injection, schedule: Q01DX009 (ip), vehicle: saline.
The mark [14] stands for this setting: dose: 100.0 mg/kg/injection, schedule: Q01DX009 (ip), vehicle: saline.

Here are results for 20 compounds from PubChem BioAssay AID330 (DTP/NCI, 2004).

Where “and” joins values, the source holds several entries; their conditions need not be identical. Equal entries are not always repeated. Inconclusive results and toxic doses are left out.

With `O.O.[Cu+2].[Cu+2].[NH-]CCC(=O)[N-]C(Cc1cnc[nH]1)C(=O)O.[NH-]CCC(=O)[N-]C(Cc1cnc[nH]1)C(=O)O` (configuration not stated), the T/C runs as follows: (dose: 6.25 mg/kg/injection, schedule: Q01DX005 (ip), vehicle: Klucel (hydroxypropylcellulose) (HPC)) 98 % of control; (dose: 12.5 mg/kg/injection, schedule: Q01DX005 (ip), vehicle: Klucel (hydroxypropylcellulose) (HPC)) 97 % of control; (dose: 25.0 mg/kg/injection, schedule: Q01DX005 (ip), vehicle: Klucel (hydroxypropylcellulose) (HPC)) 106 % of control.

In the case of `C=CCCCCCCCCC(=O)N(CCOC)CCOC`, the T/C is, setting by setting: under setting [1], 100 % of control; under setting [2], 100 % of control; under setting [3], 100 % of control.

Take `CC(=O)OC12CCCCC(CCCC1)O2`: the T/C runs as follows: (dose: 100.0 mg/kg/injection, schedule: Q04DX003 (ip), vehicle: Klucel (hydroxypropylcellulose) (HPC)) 100 % of control; (dose: 200.0 mg/kg/injection, schedule: Q04DX003 (ip), vehicle: Klucel (hydroxypropylcellulose) (HPC)) 99 % of control; (dose: 400.0 mg/kg/injection, schedule: Q04DX003 (ip), vehicle: Klucel (hydroxypropylcellulose) (HPC)) 100 % of control.

As for `COC1=CC(=C(c2ccc(O)c(OC)c2)c2ccc(O)c(OC)c2)C=CC1=O`, the T/C is 117 % of control under setting [4], 119 % of control under setting [5] and 115 % of control under setting [6].

Regarding `N#Cc1c2ccc(N)cc2nc2cc(N)ccc12`, the T/C is 100 % of control (dose: 60.0 mg/kg/injection, schedule: Q01DX005 (ip), vehicle: Klucel (hydroxypropylcellulose) (HPC)); 105 % of control (dose: 120.0 mg/kg/injection, schedule: Q01DX005 (ip), vehicle: Klucel (hydroxypropylcellulose) (HPC)); 118 % of control (dose: 240.0 mg/kg/injection, schedule: Q01DX005 (ip), vehicle: Klucel (hydroxypropylcellulose) (HPC)).

Turning to `CCN(CC)C(=O)c1cc(OC)c(C(=O)N(CC)CC)cc1OC`, the T/C reads like this: under setting [7], 100 % of control; under setting [8], 108 % of control; under setting [9], 101 % of control.

On to `CCOC(=O)Cc1csc(=S)n1C`, for which the T/C runs as follows: under setting [4], 102 % of control; under setting [5], 109 % of control; under setting [6], 109 % of control.

Turning to `COc1cc(OC)c(NC(=O)Nc2cc(Cl)ccc2Cl)cc1Cl`, the T/C reads like this: under setting [10], 94 % of control; under setting [11], 91 % of control.

Regarding `O=C(NO)/C(CC(=O)c1ccccc1O)=N\O`, the T/C by setting is: (dose: 60.0 mg/kg/injection, schedule: Q01DX005 (ip), vehicle: saline) 100 % of control; (dose: 120.0 mg/kg/injection, schedule: Q01DX005 (ip), vehicle: saline) 111 % of control; (dose: 240.0 mg/kg/injection, schedule: Q01DX005 (ip), vehicle: saline) 103 % of control.

Regarding `CC1=C[S+](c2ccccc2)c2cccc3cc4ccccc4c1c23` (configuration not stated), the T/C is 100 % of control (dose: 0.62 mg/kg/injection, schedule: Q04DX003 (ip), vehicle: saline); 100 % of control (dose: 1.25 mg/kg/injection, schedule: Q04DX003 (ip), vehicle: saline); 104 % of control (dose: 2.5 mg/kg/injection, schedule: Q04DX003 (ip), vehicle: saline).

Regarding `O=[N+]([O-])c1nccn1CCCO`, the T/C (dose: 12.5 mg/kg/injection, schedule: Q01DX009 (ip), vehicle: water) was 98 % of control; the T/C (dose: 25.0 mg/kg/injection, schedule: Q01DX009 (ip), vehicle: water) is 97 % of control; the T/C (dose: 50.0 mg/kg/injection, schedule: Q01DX009 (ip), vehicle: water) is 100 % of control; the T/C (dose: 100.0 mg/kg/injection, schedule: Q01DX009 (ip), vehicle: water) is 103 % of control; the T/C (dose: 200.0 mg/kg/injection, schedule: Q01DX009 (ip), vehicle: water) is 100 % of control.

For `c1cc2cc(-c3ccc4cc(-c5ccc6oc(C7=NCCN7)cc6c5)[nH]c4c3)[nH]c2cc1C1=NCCN1`, the T/C by setting is: (dose: 50.0 mg/kg/injection, schedule: Q01DX005 (ip), vehicle: Klucel (hydroxypropylcellulose) (HPC)) 156 % of control; (dose: 100.0 mg/kg/injection, schedule: Q01DX005 (ip), vehicle: Klucel (hydroxypropylcellulose) (HPC)) 114 % of control; (dose: 200.0 mg/kg/injection, schedule: Q01DX005 (ip), vehicle: Klucel (hydroxypropylcellulose) (HPC)) 91 % of control.

With `N#CC(C(=O)CCCC(=O)Nc1cccc([N+](=O)[O-])c1)c1cccc2ccccc12` (configuration not stated), the T/C is, setting by setting: under setting [7], 104 % of control; under setting [8], 108 % of control; under setting [9], 101 % of control.

As to `CC(=O)C1CC2C=CC1N(C1=CC(=O)CC(C)(C)C1)C2=O` (configuration not stated), the T/C reads like this: under setting [10], 108 % of control; under setting [11], 107 % of control; under setting [12], 100 % of control.

For the compound `O=C(Cc1ccc(OCc2ccccc2)cc1)OCc1ccco1`, the T/C reads like this: under setting [10], 109 % of control; under setting [11], 100 % of control; under setting [12], 100 % of control.

Take `O=C(c1ccccc1)C(CN1CCOCC1)CN1CCOCC1`: the T/C runs as follows: under setting [13], 119 % of control; under setting [14], 116 % of control.

For `OCC1OC(c2ccc(O)cc2O)C(O)C1O` (configuration not stated), the T/C by setting is: under setting [13], 102 % of control; under setting [14], 96 % of control; (dose: 100.0 mg/kg/injection, schedule: Q04DX003 (ip), vehicle: saline) 95 % of control; (dose: 200.0 mg/kg/injection, schedule: Q01DX009 (ip), vehicle: saline) 105 % of control; (dose: 200.0 mg/kg/injection, schedule: Q04DX003 (ip), vehicle: saline) 98 % of control; (dose: 400.0 mg/kg/injection, schedule: Q04DX003 (ip), vehicle: saline) 95 % of control.

On to `O=C1CCCC2C3CCCN4CCCC(CN12)C34` (configuration not stated), for which the T/C is 100 % of control (dose: 3.12 mg/kg/injection, schedule: Q01DX007 (ip), vehicle: carboxymethylcellulose (CMC)); 98 % of control (dose: 5.0 mg/kg/injection, schedule: Q01DX009 (ip), vehicle: saline); 100 % of control (dose: 6.2 mg/kg/injection, schedule: Q01DX007 (ip), vehicle: carboxymethylcellulose (CMC)); 100 % of control (dose: 6.25 mg/kg/injection, schedule: Q01DX007 (ip), vehicle: carboxymethylcellulose (CMC)); 100 % of control and 94 % of control (dose: 10.0 mg/kg/injection, schedule: Q01DX009 (ip), vehicle: saline); 91 % of control (dose: 12.5 mg/kg/injection, schedule: Q01DX007 (ip), vehicle: carboxymethylcellulose (CMC)). In addition, the T/C (dose: 20.0 mg/kg/injection, schedule: Q01DX009 (ip), vehicle: saline) was 100 % of control and 110 % of control and 95 % of control; the T/C (dose: 23.0 mg/kg/injection, schedule: Q01DX007 (ip), vehicle: carboxymethylcellulose (CMC)) was 100 % of control; the T/C (dose: 25.0 mg/kg/injection, schedule: Q01DX007 (ip), vehicle: carboxymethylcellulose (CMC)) is 91 % of control; the T/C (dose: 40.0 mg/kg/injection, schedule: Q01DX009 (ip), vehicle: saline) was 102 % of control and 117 % of control and 95 % of control; the T/C (dose: 80.0 mg/kg/injection, schedule: Q01DX009 (ip), vehicle: saline) was 98 % of control and 110 % of control and 122 % of control; the T/C (dose: 160.0 mg/kg/injection, schedule: Q01DX009 (ip), vehicle: saline) was 102 % of control and 119 % of control.

For `COC1/C=C/OC2(C)Oc3c(C)c(O)c4c(O)c(c(C5OCCO5)c(O)c4c3C2=O)NC(=O)/C(C)=C\C=C\C(C)C(O)C(C)C(O)C(C)C(OC(C)=O)C1C` (configuration not stated), the T/C under setting [1] was 96 % of control; the T/C under setting [2] was 96 % of control; the T/C under setting [3] was 96 % of control; the T/C (dose: 200.0 mg/kg/injection, schedule: Q04DX003 (ip), vehicle: saline with Tween-80) is 104 % of control.

Consider `Cc1ccc(C)c(S(=O)(=O)Nc2c([N+](=O)[O-])cc([N+](=O)[O-])c3ccccc23)c1`, for which the T/C is, setting by setting: (dose: 50.0 mg/kg/injection, schedule: Q04DX002 (ip), vehicle: saline with Tween-80) 95 % of control; (dose: 100.0 mg/kg/injection, schedule: Q04DX002 (ip), vehicle: saline with Tween-80) 88 % of control.
